These results are taken from patent publication US20230019236A1, “PROTEIN TYROSINE PHOSPHATASE INHIBITORS AND METHODS OF USE THEREOF” (Calico Life Sciences LLC, priority 2019, published 2023).

The target of this assay is T1, His tagged PTPN2 (TC45) protein (Homo sapiens, UniProt P17706).
T1 construct: made in house
T1 sequence (P17706 with tags, fused parts or gaps isoform P17706-2): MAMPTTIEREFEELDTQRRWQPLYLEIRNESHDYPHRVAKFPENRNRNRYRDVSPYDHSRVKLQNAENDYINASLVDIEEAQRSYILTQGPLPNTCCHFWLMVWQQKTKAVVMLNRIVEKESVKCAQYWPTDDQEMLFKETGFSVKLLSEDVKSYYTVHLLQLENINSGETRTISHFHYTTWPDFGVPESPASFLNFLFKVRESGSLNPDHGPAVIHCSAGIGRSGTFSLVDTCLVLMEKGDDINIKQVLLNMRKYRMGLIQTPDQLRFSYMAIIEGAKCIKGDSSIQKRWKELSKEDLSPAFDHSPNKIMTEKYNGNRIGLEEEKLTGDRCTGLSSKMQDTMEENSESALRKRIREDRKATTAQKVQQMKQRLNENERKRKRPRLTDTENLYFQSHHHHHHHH
The assay can be described thus: Mobility Shift Assay used to determine potency of PTPN2 inhibitors. The assay is classed as biochemical. The following applies: Table 2; read-out: PTPN2 MSA IC50. On the procedure: Example 292: Mobility Shift Assay used to determine potency of PTPN2 inhibitors
Compound activity was determined using in house His tagged PTPN2 (TC45) protein (SEQ ID NO: 1) in an in vitro enzymatic reaction. The enzymatic assay used to determine activity was a mobility shift assay using a LabChip EZ Reader by Caliper Life Sciences. The enzymatic reaction was carried out in assay buffer (50 mM HEPES pH 7.5, 1 mM EGTA, 10 mM EDTA, 0.01% Tween® 20, and 2 mM DTT). The compounds were dispensed on a white 384 well ProxiPlate™ (PerkinElmer Catalog#6008289) plate using the Labcyte Echo at varying concentrations (12 point, 1:3 dilution). The enzyme (at 0.5 nM) was incubated with compound for 10 minutes at room temperature. Then the substrate (phosphorylated insulin receptor probe sequence: ((OG488)—{NH—CH2—CH2—O—CH2—CH2—O—CH2—CO)—T—R—D—I—(PY)—E—T—D—Y—Y—R—K—K—NH2) (SEQ ID NO: 2) was added at 2 μM to the plates and incubated for another 10 minutes at room temperature. Finally, a quench solution (water and 4-bromo-3-(2-oxo-2-propoxyethoxy)-5-(3-{[1-(phenylmethanesulfonyl)piperidin-4-yl]amino}phenyl)thiophene-2-carboxylic acid) was added to the plates, which were then run on the EZ Reader (excitation 488 nm, emission 530 nm) to measure % conversion (the amount of phosphorylated substrate which was de-phosphorylated by PTPN2). […] The % inhibition was then used to calculate the IC50 values.
Turning to `O=C1CN(c2c(O)cc3ccc(C4=CCN(CCC5CC5)C4)cc3c2F)S(=O)(=O)N1` [Compound 244, 5-{7-[1-(2-cyclopropylethyl)-2,5-dihydro-1H-pyrrol-3-yl]-1-fluoro-3-hydroxynaphthalen-2-yl}-1λ^6,2,5-thiadiazolidine-1,1,3-trione], the IC50 lay in the range of 10 to 100 nM.

As to `O=C1CN(c2c(O)cc3ccc(OCCCC(F)F)cc3c2F)S(=O)(=O)N1` [Compound 372, 5-[7-(4,4-difluorobutoxy)-1-fluoro-3-hydroxynaphthalen-2-yl]-1λ^6,2,5-thiadiazolidine-1,1,3-trione], the IC50 was below 1 nM.

For the compound `O=C1CN(c2c(O)cc3ccc(OCCC4COC4)cc3c2F)S(=O)(=O)N1` [Compound 373, 5-{1-fluoro-3-hydroxy-7-[2-(oxetan-3-yl)ethoxy]naphthalen-2-yl}-1λ^6,2,5-thiadiazolidine-1,1,3-trione], the IC50 is 1 to 10 nM.

Consider `O=C1CN(c2c(O)cc3ccc(OCCC4(CO)CCC4)cc3c2F)S(=O)(=O)N1` [Compound 374, 5-(1-fluoro-3-hydroxy-7-{2-[1-(hydroxymethyl)cyclobutyl]ethoxy}naphthalen-2-yl)-1λ^6,2,5-thiadiazolidine-1,1,3-trione], for which the IC50 is below 1 nM.

Regarding `O=C1CN(c2c(O)cc3ccc(OCCCC(F)(F)CO)cc3c2F)S(=O)(=O)N1` [Compound 375, 5-{7-[(4,4-difluoro-5-hydroxypentyl)oxy]-1-fluoro-3-hydroxynaphthalen-2-yl}-1λ^6,2,5-thiadiazolidine-1,1,3-trione], the IC50 was below 1 nM.

Turning to `NCC12CC(CCOc3ccc4cc(O)c(N5CC(=O)NS5(=O)=O)c(F)c4c3)(C1)C2` [Compound 376, 5-(7-{2-[3-(aminomethyl)bicyclo[11.1.1]pentan-1-yl]ethoxy}-1-fluoro-3-hydroxynaphthalen-2-yl)-1λ^6,2,5-thiadiazolidine-1,1,3-trione], the IC50 lay within 1 to 10 nM.

For the compound `O=C1CN(c2c(O)cc3ccc(OCC45CC(CCO)(C4)C5)cc3c2F)S(=O)(=O)N1` [Compound 377, 5-(1-fluoro-3-hydroxy-7-{[3-(2-hydroxyethyl)bicyclo[1.1.1]pentan-1-yl]methoxy}naphthalen-2-yl)-1λ^6,2,5-thiadiazolidine-1,1,3-trione], the IC50 is 1 to 10 nM.

`O=C1CN(c2c(O)cc3ccc(OCCC45CC(C4)C5)cc3c2F)S(=O)(=O)N1` [Compound 378, 5-{7-[2-(bicyclo[11.1.1]pentan-1-yl)ethoxy]-1-fluoro-3-hydroxynaphthalen-2-yl}-1λ^6,2,5-thiadiazolidine-1,1,3-trione]: the IC50 was below 1 nM.

`NCC1(CCOc2ccc3cc(O)c(N4CC(=O)NS4(=O)=O)c(F)c3c2)CCC1` [Compound 379, 5-(7-{2-[1-(aminomethyl)cyclobutyl]ethoxy}-1-fluoro-3-hydroxynaphthalen-2-yl)-1λ^6,2,5-thiadiazolidine-1,1,3-trione]: the IC50 was 1 to 10 nM.

Consider `CC1(O)CN(CCOc2ccc3cc(O)c(N4CC(=O)NS4(=O)=O)c(F)c3c2)C1` [Compound 380, 5-{1-fluoro-3-hydroxy-7-[2-(3-hydroxy-3-methylazetidin-1-yl)ethoxy]naphthalen-2-yl}-1λ^6,2,5-thiadiazolidine-1,1,3-trione], for which the IC50 lay within 1 to 10 nM.

Regarding `O=C1CN(c2c(O)cc3ccc(OCCN4CCC[C@H]4C(F)(F)F)cc3c2F)S(=O)(=O)N1` [Compound 381, 5-(1-fluoro-3-hydroxy-7-{2-[(2S)-2-(trifluoromethyl)pyrrolidin-1-yl]ethoxy}naphthalen-2-yl)-1λ^6,2,5-thiadiazolidine-1,1,3-trione], the IC50 lay in the range of 1 to 10 nM.

Regarding `COCCN(C)CCOc1ccc2cc(O)c(N3CC(=O)NS3(=O)=O)c(F)c2c1` [Compound 382, 5-(1-fluoro-3-hydroxy-7-{2-[(2-methoxyethyl)(methyl)amino]ethoxy}naphthalen-2-yl)-1λ^6,2,5-thiadiazolidine-1,1,3-trione], the IC50 was 10 to 100 nM.
